Results reported in patent US12662707B2, “MYC amplification drives resistance to pan-RAS inhibitors in pancreatic cancer” (The Trustees of Columbia University in the City of New York, priority 2024, dated 2026).

Legend:
Myc protein levels = assay: Western blot of Myc in resistant and naive KPC cell lines; assay type: cell-based, murine; conditions: 100 nM, 24 hours
Experimental: Cells were seeded at 7.5×10^5-4×10^6 cells per well in 6-well plates or 100 mm dishes in growth medium. After overnight incubation, indicated compound (RMC-7977, IAG933 or DMSO (0.1% v/v)) were added and incubated for the indicated time points. Cells were washed twice with ice-cold PBS and lysed with NP-40 lysis buffer (Thermo Fisher Scientific, J60766), MSD Tris Lysis Buffer (MSD, R60TX-2), RIPA buffer (50 mM TRIS-HCl, pH 7.5, 150 mM NaCl, 1% NP-40, 0.5% sodium deoxycholate, 0.1% SDS) or a lysis buffer containing 1% Triton X-100, 20 mM Tris-HCl, 150 mM NaCl, and 1 mM EDTA. All lysis buffers were supplemented with protease and phosphatase inhibitors. Lysates were scraped and collected before centrifugation at 21,000×g for 10 minutes at 4° C. The protein-containing supernatants were quantified by BCA assay (Pierce, 23225) and equal quantities of protein were denatured with LDS and reducing agent at 95° C. Samples were resolved on 12% or 4-12% Bis-Tris polyacrylamide gels, then transferred to a nitrocellulose or PVDF membrane using the iBlot 2.0 system or wet transfer. Membranes were blocked in Intercept TBS buffer (LiCor, 927-60001) or 3-5% milk before probing with primary antibodies overnight at 4° C. Secondary antibodies were added as appropriate, and the membranes were imaged on a LiCor Odyssey imager. […]

[1] = test system: human PDAC xenograft models; assay: Human PDAC xenograft (CDX/PDX) tumor growth studies; assay type: in vivo, mouse; conditions: 10 mg/kg daily
Experimental: Studies were conducted at the following CROs: GenenDesign (Shanghai, China), Pharmaron (Beijing, China), and Wuxi AppTec (SuZhou, China). All CDX/PDX mouse studies and procedures related to animal handling, care and treatment were conducted in compliance with all applicable regulations and guidelines of the relevant Institutional Animal Care and Use Committee (IACUC). Female BALB/c nude mice and NOD SCID mice 6-8 weeks old from Beijing Vital River/VR Laboratory Animal Co., LTD, Beijing AniKeeper Biotech Co., Ltd., and Shanghai Sino-British SIPPR/BK Laboratory Animal Co., LTD were used for these studies.
In order to generate subcutaneous xenograft tumors each mouse was inoculated at the right flank with tumor cells (2×10^6-1×10^7) in 100-200 μl of media/PBS supplemented with Matrigel (1:1). Treatments were started when the average tumor volume reached 150-250 mm^3 (for tumor growth evaluation) and 400-600 mm^3 (for single dose pharmacokinetic/pharmacodynamic (PK/PD) study). Tumor diameter was measured in two dimensions using a digital caliper, and the tumor volume in mm^3 was calculated using the formula: Volume=((width)2×length)/2. Mice on studies were weighed and tumors were measured 2 times a week.
The human primary cancer xenograft models were generated using fresh tumor fragments obtained from hospitals with informed consent from the patients in accordance with protocols approved by the Hospital Institutional Ethical Committee (IEC). The tumor fragments were serial passaged in BABL/c nude mice and then cryopreserved for further use. For this study, recovered tumor fragments of about 15-30 mm^3 in size from each model were implanted into right flanks of BALB/c nude mice. Treatment started when average tumor volume reached 150-250 mm^3.
To generate orthotopic xenograft tumors, survival surgeries were carried out and 2×10^6 5×10^6 luciferase-expressing tumor cells in 30-50 μL Media/Matrigel mixtures (1:1) were implanted directly into the mouse pancreas. Treatments were started when the tumors produced an average of 50-80×10^7 photon/second as measured by the in vivo imaging system (IVIS). All subsequent tumor measures were also conducted by IVIS. For routine monitoring, mice were injected intraperitoneally with 15 mg/mL (at 5 μL/g BW) of D-Luciferin (Perkin Elmer) and imaged, after which Living Image software (Perkin Elmer) was used to compute regions of interest (ROI) and tumor volumes.
Tumor-bearing animals were randomized and assigned into groups (n=3-10/group). Vehicle or RMC-7977 was administered via oral gavage daily at 10 mg/kg and animals were treated for 21-28 days. Studies were terminated early if tumor burden reached humane endpoint. Body weights were collected twice a week during the study. Means±s.e.m were plotted in the waterfall plots. For the single-dose pharmacokinetic/pharmacodynamic (PK/PD) study, mice were randomized and assigned into groups (n=3-6/dose/timepoint). A single dose of RMC-7977 was administered orally at 10 mg/kg, 25 mg/kg and 50 mg/kg. Tissues (including tumor, colon and skin) were harvested at indicated time points and either fixed in 10% formalin, embedded in Optimal Cutting Temperature (OCT; Sakura, 4583) solution or snap-frozen in LN2 for further analysis. Whole blood was transferred into K2EDTA Microtainer tubes (BD, 365974), incubated for 5 minutes and snap-frozen in LN2.

With `CCn1c(-c2cc(N3CCN(C4CC4)CC3)cnc2[C@H](C)OC)c2c3cc(ccc31)-c1csc(n1)C[C@H](NC(=O)[C@H]1[C@@H]3COC[C@@H]31)C(=O)N1CCC[C@H](N1)C(=O)OCC(C)(C)C2` [RMC-7977] the Myc protein levels (Myc protein levels; two RMC-7977 Naive lines) was “fully inhibited”, the Myc protein levels (Myc protein levels; two Resistant lines) was “incompletely reduced” and the “models with tumor regressions” value ([1]; 21-28 days) was 7/10. The “response of KRASQ61H mutant HS-766T line in CDX setting” value ([1]; HS-766T CDX) was “among the most responsive”, the tolerability ([1]; all 10 models) was “well tolerated” and the anti-tumor activity ([1]; all 10 models, 21-28 days) was “significant anti-tumor activity”. The “body weight over time” value ([1]; treated animals) was “stable body weight”.
